Values quoted from earlier work as cited in patent US6825040B2, “Method of using a vapor acid test kit” (Mainstream Engineering Corporation, priority 1995, dated 2004).
Read-outs that look alike come from different tables or passages of the source.

Assays:
[1] = negative log of the dissociation equilibrium constant of the indicator
[2] = pH range of the indicator colour change

SMILES: CN(C)c1ccc(/N=N/c2ccccc2C(=O)O)cc1 [Methyl red, o-Carboxybenzeneazodimethylaniline]
- pKa [1]: 4.95
- pH Range [2]: 4.4 to 6.2

SMILES: Cc1cc(C2(c3cc(C)c(O)c(Br)c3)OS(=O)(=O)c3ccccc32)cc(Br)c1O [Bromocresol purple, Dibromo-o-cresolsulfonephthalein]
- pH Range [2]: 5.2 to 6.8

SMILES: Cc1cc(O)c(C(C)C)cc1C1(c2cc(C(C)C)c(O)cc2C)OS(=O)(=O)c2ccccc21 [Thymol blue (acid range), Thymolsulfonephthalein]
- pH Range [2]: 1.2 to 2.8
- pH Range ([2]; listed as Thymol blue): 8.0 to 9.6

SMILES: Cc1c(C2(c3cc(Br)c(O)c(Br)c3C)OS(=O)(=O)c3ccccc32)cc(Br)c(O)c1Br [Bromocresol green, Tetrabromo-m-cresolsulfonephthalein]
- pKa [1]: 4.58
- pH Range [2]: 4.0 to 6.8

SMILES: O=C1OC(c2ccc(O)cc2)(c2ccc(O)cc2)c2ccccc21 [Phenolphthalein]
- pKa [1]: 9.4
- pH Range [2]: 8.0 to 10.0

SMILES: O=S1(=O)OC(c2ccc(O)c(Br)c2)(c2ccc(O)c(Br)c2)c2ccccc21 [Bromophenol red, Dibromophenolsulfonephthalein]
- pH Range [2]: 5.2 to 6.8

SMILES: Cc1c(C2(c3cc(C(C)C)c(O)c(Br)c3C)OS(=O)(=O)c3ccccc32)cc(C(C)C)c(O)c1Br [Bromothymol blue, Dibromothymolsulfonephthalein]
- pH Range [2]: 6.2 to 7.6

SMILES: O=S1(=O)OC(c2ccc(O)c(Cl)c2)(c2ccc(O)c(Cl)c2)c2ccccc21 [Chlorophenol red, Dichlorophenolsulfonephthalein]
- pKa [1]: 6.0
- pH Range [2]: 5.4 to 6.8

SMILES: O=S(=O)([O-])c1ccc(N=Nc2ccc(O)cc2O)cc1.[Na+] [Tropeolin 0, p-Sulfobenzeneazoresorcinol]
- pH Range [2]: 11.0 to 13.0

SMILES: Cc1cc(O)c(C(C)C)cc1C1(c2cc(C(C)C)c(O)cc2C)OC(=O)c2ccccc21 [Thymolphthalein]
- pKa [1]: 10.0
- pH Range [2]: 9.4 to 10.6

SMILES: CN(C)c1ccc(N=Nc2ccc(S(=O)(=O)[O-])cc2)cc1.[Na+] [Methyl orange, Dimethylaminoazobenzene sodium sulfonate]
- pKa [1]: 3.40
- pH Range [2]: 3.1 to 4.4

SMILES: O=S(=O)([O-])c1ccc(N=Nc2ccc(Nc3ccccc3)cc2)cc1.[Na+] [Tropeolin 00, Diphenylamino-p-benzene sodium sulfonate]
- pH Range [2]: 1.3 to 3.2
